Like-named read-outs stand apart in the source and are kept apart here.
Assays:
NCI 60 cell panel = assay: DTP-NCI assay (NCI 60 cell screen, single high dose); format: cell-based; settings: Homo sapiens, 48 h; single high dose 10^-5 M, full NCI 60 cell panel; growth relative to no-drug control and to time zero number of cells; read-out: DTP-NCI (mean of the percent growth of treated cells)
Method: The effect of 10 μM of MTF504 was monitored on a panel 60 cell lines representing nine distinct tumour types: leukemia, colon, lung, central nervous system, renal, melanoma, ovarian, breast and prostate. Briefly, the compound was sent to the US National Cancer Institute where its antineoplastic effects were monitored on the panel of cell lines after 48 hours of treatment following a standardized protocol.
All compounds submitted to the NCI 60 Cell screen are tested initially at a single high dose (10^-5 M) in the full NCI 60 cell panel. The results are reported as a mean of the percent growth of treated cells. The number reported is growth relative to the no-drug control, and relative to the time zero number of cells. This allows detection of […].

A375 = assay: Cell viability of A375 melanoma cells by Trypan Blue exclusion; format: cell-based; settings: Homo sapiens, A-375, viable cells as mean percentage of control cells ± SEM, N=3
Method: The BRAFV600E mutant melanoma line A375 (CRL-1619) was purchased from ATCC (Manassas, VA, USA). The A375 were maintained in glutamine-containing DMEM supplemented with 10% heat-inactivated fetal bovine serum, penicillin (100 units/ml) and streptomycin ([…]).
Cell viability was measured by the Trypan Blue exclusion method. Briefly, cells washed with PBS were harvested by a 3-minute incubation in 0.05% trypsin before neutralization with serum containing medium. An aliquot of the cell suspension was then mixed 1:1 with a 0.4% Trypan blue solution and viable cells were counted within 5 minutes on Kova slides under an optical microscope. Results are expressed as the mean percentage of control cells±SEM. N=3

[1] = 24 h, read-out: Viab A375 5 μM/24 h
[2] = 48 h, read-out: Viab A375 5 μM/48 h
[3] = 24 h, read-out: Viab A375 10 μM/24 h
[4] = 48 h, read-out: Viab A375 10 μM/48 h

Structure (SMILES)	activity at 10 µM (NCI 60 cell panel) [%]	viability at 5 µM (A375; [1]) [%]	viability at 5 µM (A375; [2]) [%]	viability at 10 µM (A375; [3]) [%]	viability at 10 µM (A375; [4]) [%]
N=C(NC(=O)Nc1ccccc1F)Nc1nc2ccccc2s1 [MTF654, N-benzo[d]thiazol-2-yl-N″-(2-fluoroaniline-carbonyl)-guanidine]	20.3				
N=C(NC(=O)Nc1ccc(Br)cc1)Nc1nc(-c2cccc([N+](=O)[O-])c2)cs1 [MTF427, N-4-(3-nitrophenyl) thiazol-2-yl-N″-(4-bromoaniline-carbonyl)-guanidine]	72.5	94.2	34.4		
Cc1cccc(NC(=O)NC(=N)Nc2nc3ccccc3s2)c1 [MTF420, N-benzo[d]thiazol-2-yl-N″-(3-methylaniline-carbonyl)-guanidine]	32.9	59	24.8	48.9	20.4
COc1ccccc1NC(=O)NC(=N)Nc1nc2ccccc2s1 [MTF419, N-benzo[d]thiazol-2-yl-N″-(2-methoxyaniline-carbonyl)-guanidine]	26.7	62.6	18.8	56.8	21.8
Cc1nc(NC(=N)NC(=O)Nc2cccc(Cl)c2)sc1C [MTF506, 4,5-dimethylthiazol-2-yl-N″-(3-chloroaniline-carbonyl)-guanidine]	67.7	64.3	54.5		
N=C(NC(=O)Nc1ccccc1)Nc1nc2ccccc2s1 [MTF314, N—(N-(benzo[d]thiazol-2-yl)carbamimidoyl)-anilinocarboxamide]	37.4	53.5	12.3	32.7	7.6
Cc1ccccc1NC(O)NC(=N)Nc1nc(-c2cccc([N+](=O)[O-])c2)cs1 (stereo not shown) [MTF515, N-4-(3-nitrophenyl) thiazol-2-yl-N″-(2-methylaniline-carbonyl)-guanidine]	37.7	64.9	28.7		
Cc1nc(NC(=N)NC(=O)Nc2ccccc2)sc1C [MTF496, 4,5-dimethylthiazol-2-yl-N″-(aniline-carbonyl)-guanidine]	83.8	67.7	56.6		
N=C(NC(=O)Nc1c(Cl)cccc1Cl)Nc1nc2ccccc2s1 [MTF650, N-benzo[d]thiazol-2-yl-N″-(2,6-dichloroaniline-carbonyl)-guanidine]	36.4				
N=C(NC(=O)Nc1cccc2ccccc12)Nc1nc2ccccc2s1 [MTF418, N-benzo[d]thiazol-2-yl-N″-(naphtalen-1-amine-carbonyl)-guanidine]	26.1	16.5	16.7	41	4.6
Cc1cccc(NC(=O)NC(=N)Nc2nc(C)c(C)s2)c1 [MTF510, 4,5-dimethylthiazol-2-yl-N″-(3-methylaniline-carbonyl)-guanidine]	47.2	56.5	26.1		
Cc1nc(NC(=N)NC(=O)Nc2ccc(Br)cc2)sc1C [MTF429, 4,5-dimethylthiazol-2-yl-N″-(4-bromoaniline-carbonyl)-guanidine]		94.2	39.1		
N=C(NC(=O)Nc1cccc(Cl)c1)Nc1nc2ccccc2s1 [MTF415, N-benzo[d]thiazol-2-yl-N″-(3-chloroaniline-carbonyl)-guanidine]	35.4	93.5	32.9	58.3	19.9
Cc1ccccc1NC(=O)NC(=N)Nc1nc2ccccc2s1 [MTF495, N-benzo[d]thiazol-2-yl-N″-(2-methylaniline-carbonyl)-guanidine]	25.9	38.6	8		
Cc1cccc(NC(=O)NC(=N)Nc2nc(-c3cccc([N+](=O)[O-])c3)cs2)c1 [MTF431, N-4-(3-nitrophenyl) thiazol-2-yl-N″-(3-methylaniline-carbonyl)-guanidine]		95.4	41.6		
Cc1nc(NC(=N)NC(=O)Nc2cccc([N+](=O)[O-])c2)sc1C [MTF512, 4,5-dimethylthiazol-2-yl-N″-(3-nitroaniline-carbonyl)-guanidine]		87	54.3		
N=C(NC(=O)Nc1cccc2ccccc12)Nc1nc(-c2cccc([N+](=O)[O-])c2)cs1 [MTF430, N-4-(3-nitrophenyl) thiazol-2-yl-N″-(naphtalen-1-amine-carbonyl)-guanidine]	89.2	75.8	25.3		

Structure (SMILES)	activity at 10 µM (NCI 60 cell panel) [%]	viability at 5 µM (A375; [1]) [%]	viability at 5 µM (A375; [2]) [%]	viability at 10 µM (A375; [3]) [%]	viability at 10 µM (A375; [4]) [%]
N=C(NC(=O)NC1CC1)Nc1nc2ccccc2s1 [MTF214, N—(N-(benzo[d]thiazol-2-yl)carbamimidoyl)cyclopropylamine-1-carboxamide]		98.2	76.6	51.5	87.7
N=C(NC(=O)Nc1ccc(Cl)cc1)Nc1nc(-c2ccccc2)cs1 [MTF426, N-4-phenylthiazol-2-yl-N″-(4-chloroaniline-carbonyl)-guanidine]		109	46.4		
N=C(NC(=O)Nc1ccccc1Cl)Nc1nc2ccc([N+](=O)[O-])cc2s1 [MTF657, N-6-nitrobenzo[d]thiazol-2-yl-N″-(2-chloroaniline-carbonyl)-guanidine]	31.2				
COc1cccc(NC(=O)NC(=N)Nc2nc(-c3cccc([N+](=O)[O-])c3)cs2)c1 [MTF432, N-4-(3-nitrophenyl) thiazol-2-yl-N″-(3-methoxyaniline-carbonyl)-guanidine]	74.8	115	29.8		
COc1cccc(NC(=O)NC(=N)Nc2nc(C)c(C)s2)c1 [MTF511, 4,5-dimethylthiazol-2-yl-N″-(3-methoxyaniline-carbonyl)-guanidine]		92.1	82.8		
COc1ccccc1NC(=O)NC(=N)Nc1nc(-c2cccc([N+](=O)[O-])c2)cs1 [MTF434, N-4-(3-nitrophenyl) thiazol-2-yl-N″-(2-methoxyaniline-carbonyl)-guanidine]		63.8	50.7		
CCc1ccccc1NC(=O)NC(=N)Nc1nc2ccccc2s1 [MTF653, N-benzo[d]thiazol-2-yl-N″-(2-ethylaniline-carbonyl)-guanidine]	0.27				
N=C(NC(=O)Nc1ccc(Cl)cc1Cl)Nc1nc2ccccc2s1 [MTF649, N-benzo[d]thiazol-2-yl-N″-(2,4-dichloroaniline-carbonyl)-guanidine]	-58.2				
COc1ccccc1NC(=O)NC(=N)Nc1nc(-c2ccccc2)cs1 [MTF433, N-4-phenylthiazol-2-yl-N″-(2-methoxyaniline-carbonyl)-guanidine]		109	43.9		
N=C(NC(=O)Nc1ccccc1[N+](=O)[O-])Nc1nc2ccccc2s1 [MTF655, N-benzo[d]thiazol-2-yl-N″-(2-nitroaniline-carbonyl)-guanidine]	11.6				
Cc1nc(NC(=N)NC(=O)Nc2ccccc2Cl)sc1C [MTF505, 4,5-dimethylthiazol-2-yl-N″-(2-chloroaniline-carbonyl)-guanidine]	33	31.1	10		
N=C(NC(=O)Nc1ccccc1Br)Nc1nc2ccccc2s1 [MTF651, N-benzo[d]thiazol-2-yl-N″-(2-bromoaniline-carbonyl)-guanidine]	-17.8				
Cc1nc(NC(=N)NC(=O)Nc2ccc(Cl)cc2)sc1C [MTF507, 4,5-dimethylthiazol-2-yl-N″-(4-chloroaniline-carbonyl)-guanidine]		98.9	139		
N=C(NC(=O)Nc1ccc(Cl)cc1)Nc1nc(-c2cccc([N+](=O)[O-])c2)cs1 [MTF428, N-4-(3-nitrophenyl) thiazol-2-yl-N″-(4-chloroaniline-carbonyl)-guanidine]		128	50.2		
Cc1ccc(Cl)cc1NC(=O)NC(=N)Nc1nc2ccccc2s1 [MTF656, N-benzo[d]thiazol-2-yl-N″-(2-methyl-5-chloroaniline-carbonyl)-guanidine]	-19.4				
CCOc1ccccc1NC(=O)NC(=N)Nc1nc2ccccc2s1 [MTF652, N-benzo[d]thiazol-2-yl-N″-(2-ethoxyaniline-carbonyl)-guanidine]	12.6				
N=C(NC(=O)Nc1cccc2ccccc12)Nc1nc(-c2ccccc2)cs1 [MTF435, N-4-phenylthiazol-2-yl-N″-(naphtalen-1-amine-carbonyl)-guanidine]		81	84.6		

Source: US20260209196A1, “AMIDINOUREA DERIVATIVES AND THEIR USE IN THE TREATMENT OF CANCER” (UNIVERSITE COTE D'AZUR, priority 2022, published 2026)
